Experimental data reported in patent EP3463364B1, “PYRAZINE DERIVATIVES FOR USE IN THE TREATMENT OF DISEASES ASSOCIATED WITH CELL CYCLE DYSREGULATION” (University of Patras, priority 2016, dated 2017).

How the values were obtained:
[1] = target: T1, exogenous Geminin-Cdtl protein complex (Homo sapiens, UniProt O75496+Q9H211); test: FRET acceptor photobleaching cellular assay in co-transfected MCF7 cells (Cdt1-GFP & Geminin-dhcRed); format: cell-based; conditions: 100µM, 24-hour incubation, MCF7 cells co-transfected with Cdt1-GFP & Geminin-dhcRed (Fig. 3)
T1 construct: expressed in transfected cells; host or cells: MCF7
T1 sequence (Q9H211 1-546): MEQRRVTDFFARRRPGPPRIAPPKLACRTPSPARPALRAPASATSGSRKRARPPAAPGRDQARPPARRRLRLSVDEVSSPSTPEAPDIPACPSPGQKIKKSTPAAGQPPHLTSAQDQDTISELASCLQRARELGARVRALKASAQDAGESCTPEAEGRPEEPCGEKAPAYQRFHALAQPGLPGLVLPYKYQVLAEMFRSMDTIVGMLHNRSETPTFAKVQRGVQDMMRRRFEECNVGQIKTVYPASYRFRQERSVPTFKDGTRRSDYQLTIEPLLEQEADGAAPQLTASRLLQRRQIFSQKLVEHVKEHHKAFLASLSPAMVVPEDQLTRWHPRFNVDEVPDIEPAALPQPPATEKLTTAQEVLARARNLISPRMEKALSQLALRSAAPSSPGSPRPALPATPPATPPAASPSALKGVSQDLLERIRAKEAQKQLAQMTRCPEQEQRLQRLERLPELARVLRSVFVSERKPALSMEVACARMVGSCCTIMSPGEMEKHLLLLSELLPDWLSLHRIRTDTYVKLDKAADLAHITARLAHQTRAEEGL
T1 sequence (O75496 1-209): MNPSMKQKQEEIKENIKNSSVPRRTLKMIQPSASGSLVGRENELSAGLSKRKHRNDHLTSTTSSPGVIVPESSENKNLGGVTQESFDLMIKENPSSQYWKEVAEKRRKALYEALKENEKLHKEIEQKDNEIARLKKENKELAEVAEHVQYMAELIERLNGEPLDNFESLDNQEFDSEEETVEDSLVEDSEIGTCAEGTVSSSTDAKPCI
Procedure: A cellular assay was developed and applied using epithelial cells of breast adenocarcinoma (MCF7), for the purpose of the ex vivo study of the ability of the synthetic chemical compound AF-615/30368009 to inhibit formation and/or disrupt the exogenous Geminin-Cdtl protein complex.
The appropriate number of cells was seeded onto glass coverslips and cells were allowed in culture in order to adhere. Then they were transiently co-transfected with plasmid expression vectors pcDNA3.1-EGFP and pdiHcRed-N1 containing the DNA regions encoding for the proteins Cdtl-GFP and Geminin-dhcRed respectively. Three to five hours after co-transfection, the medium was removed and replaced with fresh medium which contained the synthetic chemical compound AF-615/30368009 at a concentration of 100µM. […]
MCF7 cancer cells fixed as described above were used to perform FRET acceptor photobleaching. In order to quantify the efficiency (E) of the FRET phenomenon, the following equation was used: (4) E = (Dpost - Dpre)/Dpost, wherein Dpre and Dpost is the mean value of fluorescence intensity of the donor before and after photobleaching of the acceptor, respectively.
For the purposes of this invention the inhibitory effect of the synthetic compound AF-615/30368009 on the exogenous Geminin-Cdtl protein complex was calculated as the percent (%) change in efficiency (E) of the FRET phenomenon. […]

MCF7 cancer cells = test: Cell cycle progression by propidium iodide flow cytometry, cancer cells; format: cell-based; conditions: 100 µM, 23hrs
Procedure: Since the proteins Geminin and Cdtl are key regulators of the cell cycle, the effect of the synthetic compound on the development of the cancer cell and normal cell cycle was studied. Staining of the genetic material of the cells was performed with propidium iodide and the technique of flow cytometry was applied for their separation, based on the amount of genetic material.
MCF7 cells were used as cancer cells, whereas primary cells and particularly embryonic mouse fibroblasts (Mouse Embryonic Fibroblasts, MEFs) were used as normal cells. The cells were incubated with the synthetic chemical compound AF-615/30368009 at a concentration of 100 µM and cultured for 23hrs in 100-mm dishes, to 80% confluency. Cells which had been incubated with only DMSO were used as a negative control sample. The next day of the incubation, cells were harvested using trypsin. […] The experiments were conducted using a Becton Dickinson flow cytometer and the data were analyzed by the WinMDi software version 2.8.
The graphs shown in Fig. 5 are representative of at least two independent experiments. The x axis represents the intensity of the fluorescence of propidium iodide and proportionally the amount of DNA content of the cells, while the y-axis corresponds to the number of events for each phase of the cell cycle.

## O=C(NNC(=S)N1CCOCC1)c1cnccn1 [AF-615/30368009, N'-(morpholine-4-carbothioyl)pyrazine-2-carbohydrazide]
[1]
  efficiency (E) of the FRET phenomenon: decrease in (E), although not statistically significant
MCF7 cancer cells; MCF7, compared to DMSO control (Fig. 5B vs 5A)
  percentage (%) of cells in G0/G1 and S phases: significant increase
MCF7 cancer cells; MCF7, in comparison to DMSO control (Fig. 5B vs 5A)
  population of cells corresponding to the G2/M phase of the cell cycle: extremely limited
